We go through 14 molecules from patent US4594339A, “Anti-herpes virus compositions containing 5-substituted 1-2'(deoxy-2-'-substituted-β-d-arabinofuranosyl)pyrimedene nucleosides” (priority 1984, dated 1986).

In brackets after ≈: the same amount, converted by molar mass.

One series concerns herpes zoster virus. Put plainly: Anti-viral activity against herpes zoster virus. In kind it is cell-based.
The test system of series [1] is Herpes Simplex Virus type 1. Kind of series: Inhibition of Herpes Simplex Virus type 1 replication. In kind it is cell-based. The procedure: (§1) Compounds of the invention show anti-viral and anti-tumor activity. 1-(2-Deoxy-2-fluoro-β-D-arabinofuranosyl)-5-iodocytosine inhibits Herpes Simplex Virus type 1 and type 2 replication. HFEM, Patton, 2931, and F-strain HSV-1 and 333 and G-strain HSV-2 are effected at concentrations of 1-(2-deoxy-2-fluoro-β-D-arabinofuranosyl)-5-iodocytosine 0.01μM (approximately 0.004 μg/ml).
(§2) The effective doses for 1-(2-deoxy-2-fluoro-β-D-arabinofuranosyl)-5-iodocytosine are given below. 1-(2-deoxy-2-fluoro-β-D-arabinofuranosyl)-5-iodocytosine is diluted in physiological saline, filter sterilized, and inoculated. This compound is readily soluble at concentrations of 25 mg/ml in saline. In mouse studies, the drug is inoculated by the intraperitoneal route.

Series [2] has as its system cytomegalovirus (CMV strain AD 169). Put plainly: Activity against cytomegalovirus (plaque formation on WI-38 cells). In kind it is cell-based.
A further series has as its system HSV-1 strain 2931. Put plainly: In vivo HSV-1 infection of A/J mice. As to conditions: for mice that survived the 21 day experiment: starting 24 hours after inoculation, intraperitoneal. The protocol:
as §2
1-(2-deoxy-2-fluoro-β-D-arabinofuranosyl)-5-iodocytosine was also shown to be active in vivo. A/J mice were inoculated with approximately 50 LD50 of HSV-1 strain 2931 intraperitoneally and then treated with 1-(2-deoxy-2-fluoro-β-D-arabinofuranosyl)-5-iodocytosine starting 24 hours later. 1-(2-deoxy-2-fluoro-β-D-arabinofuranosyl)-5-iodocytosinewas given at 10 and 1 mg/kg/da for 5 days. Untreated mice died 8 days post inoculation. Five of 10 mice treated with 10 mg/kg/day survived the 21 day experiment. Two of 10 treated with 1 mg/kg/da survival the 21 day experiment and the remainder died an average of 10 days after inoculation.

Series [3] relates to viral versus the cellular enzymes (TK and DNA polymerase). Put plainly: Direct testing of interaction with the viral versus the cellular enzymes. In kind it is biochemical. The conditions noted are these: FIAC or its triphosphate.
Series [4] deals with Herpes Simplex Virus type 2. Kind of series: Inhibition of Herpes Simplex Virus type 2 replication. In kind it is cell-based. The protocol:
as §1, §2

Series [5] can be described thus: Toxicity to normal human lymphoblastoid cells. In kind it is cell-based. As to conditions: read-out: concentration up to which not toxic to normal human lymphoblastoid cells. The protocol:
Since 1-(2-deoxy-2-fluoro-β-D-arabinofuranosyl)-5-iodocytosine was not toxic to normal human lymphoblastoid cells at concentrations of up to 10 μM, the compound is believed to affect tumor cells at concentrations 1/100th those needed to suppress normal cell replication.

Another series deals with turkey herpesvirus. Put plainly: In vivo test on avian (turkey) herpesvirus in day-old chicks. The conditions noted are these: 2.5 mg FIAC per 50 g chick at intervals. The protocol: In vivo tests were run to determine the effect of FIAC on avian (turkey) herpesvirus. To this end, day-old chicks were infected with turkey herpesvirus and treated at intervals with 2.5 mg FIAC per 50 g chick.

Series [6] deals with herpes simplex virus-type 1 DNA. Put plainly: Inhibition of replication of HSV-1 DNA versus cellular DNA in the same infected cells. In kind it is cell-based. As to conditions: viral vs cellular DNA in the same infected cells.
The test system of a further series is uninfected cells. The conditions noted are these: compared with 5-iodo (or 5-bromo)-2'-deoxyuridine; cited from earlier work.
In series [7] the test system is herpes simplex virus (HSV). The conditions noted are these: cited from earlier work.
The next series deals with L5178Y. Kind of series: Cytotoxicity, 50% inhibition of growth of L5178Y cells in vitro. In kind it is cell-based. The conditions noted are these: Mus musculus, 96 hrs. incubation at 37° C., read-out: Cytoxicity ID50. The protocol:
Concentration required for 50% inhibition of growth of cells in vitro
after 96 hrs. incubation at 37° C.

Where [8] appears, read: series of herpes simplex virus-types 1 and 2.

In the case of `Nc1nc(=O)n([C@@H]2O[C@H](CO)[C@@H](O)[C@@H]2F)cc1I` [1-(2-deoxy-2-fluoro-β-D-arabinofuranosyl)-5-iodocytosine], the anti-viral activity entry (in the series on herpes zoster virus; in series [1] (setting [8]); in series [4] (setting [8])) was “impressive anti-viral activity” in each case. In addition, the minimal effective concentration in series [1] (Human alphaherpesvirus 1, HFEM, Patton, 2931, and F-strain HSV-1, read-out: concentration at which HSV-1 strains are effected) was approximately 0.004 µg/mL; in series [4] (Human alphaherpesvirus 2, 333 and G-strain HSV-2, read-out: concentration at which HSV-2 strains are effected) it was approximately 0.004 µg/mL. Moreover, the “sensitivity of cytomegalovirus to anti-viral effect” value in [2] is given as “sensitive”. The “mice that survived the 21 day experiment” value is “Two of 10” in the series with HSV-1 strain 2931 (1 mg/kg/da for 5 days) and “Five of 10” with HSV-1 strain 2931 (10 mg/kg/day for 5 days). Further, the “average time of death after inoculation (remainder)” value in the series with HSV-1 strain 2931 (1 mg/kg/da for 5 days, untreated mice died 8 days post inoculation) is reported as 10 days. Also, in series [3], the “selectivity for viral versus cellular enzymes” value was “selectivity was demonstrated”. Moreover, the MNTC in [5] is more than 10 µM. Moreover, the “effect on virus induced leukopenia / inhibition of the virus” value with turkey herpesvirus was “brought the virus induced leukopenia back to the levels of the control uninfected chicks and thus inhibited the virus”. For the same molecule, the “selective inhibition of replication of viral DNA” value in series [6] is listed as “selectively inhibit the replication of herpes simplex virus-type 1 DNA but not cellular DNA”.

Take `Nc1nc(=O)n([C@H]2C[C@H](O)[C@@H](CO)O2)cc1Br` [5-Bromo-2'-deoxycytidine]: the “toxicity to uninfected cells” value in the series with uninfected cells is “less toxic to uninfected cells”. Besides, in series [7], the “inhibition of HSV replication” value is “as effectively as their corresponding deoxyuridine analogs”.

`Nc1nc(=O)n([C@H]2C[C@H](O)[C@@H](CO)O2)cc1I` [5-iodo-2'-deoxycytidine]: the “toxicity to uninfected cells” value in the series with uninfected cells is listed as “less toxic to uninfected cells”. Moreover, the “inhibition of HSV replication” value in [7] is listed as “as effectively as their corresponding deoxyuridine analogs”.

For `Nc1ccn([C@@H]2O[C@H](CO)[C@@H](O)[C@@H]2F)c(=O)n1` [IVa, 1-(2-deoxy-2-fluoro-β-D-arabinofuranosyl)cytosine, reference compound], the IC50 in the series with L5178Y was found to be 0.05 µg/mL (≈ 0.204 µM).

Regarding `Nc1nc(=O)n([C@@H]2O[C@H](CO)[C@@H](O)[C@@H]2F)cc1F` [IVb, 1-(2-deoxy-2-fluoro-β-D-arabinofuranosyl)-5-fluorocytosine], the IC50 in the series on L5178Y is 0.5 µg/mL (≈ 1.9 µM).

`Nc1nc(=O)n([C@@H]2O[C@H](CO)[C@@H](O)[C@@H]2F)cc1Cl` [IVc, 1-(2-deoxy-2-fluoro-β-D-arabinofuranosyl)-5-chlorocytosine]: the IC50 in the series on L5178Y was determined as 1.4 µg/mL (≈ 5.01 µM).

With `Nc1nc(=O)n([C@@H]2O[C@H](CO)[C@@H](O)[C@@H]2F)cc1Br` [IVd, 1-(2-deoxy-2-fluoro-β-D-arabinofuranosyl)-5-bromocytosine], the IC50 in the series on L5178Y is approximately 10 µg/mL (≈ 30.9 µM).

For `Cl.Nc1nc(=O)n([C@@H]2O[C@H](CO)[C@@H](O)[C@@H]2F)cc1I` [IVe, 1-(2-Deoxy-2-fluoro-β-D-arabinofuranosyl)-5-iodocytosine hydrochloride], the IC50 in the series on L5178Y came to 48 µg/mL.

`O=c1ccn([C@@H]2O[C@H](CO)[C@@H](O)[C@@H]2F)c(=O)[nH]1` [Va]: the IC50 with L5178Y is more than 10 µg/mL.

Consider `O=c1[nH]c(=O)n([C@@H]2O[C@H](CO)[C@@H](O)[C@@H]2F)cc1F` [Vb, 1-(2-deoxy-2-fluoro-β-D-arabinofuranosyl)-5-fluorouracil], for which the IC50 in the series with L5178Y came out at 1 µg/mL (≈ 3.79 µM).

For `O=c1[nH]c(=O)n([C@@H]2O[C@H](CO)[C@@H](O)[C@@H]2F)cc1Cl` [Vc, 1-(2-deoxy-2-fluoro-β-D-arabinofuranosyl)-5-chlorouracil], the IC50 in the series on L5178Y was 1.4 µg/mL (≈ 4.99 µM).

As to `O=c1[nH]c(=O)n([C@@H]2O[C@H](CO)[C@@H](O)[C@@H]2F)cc1Br` [Vd, 1-(2-deoxy-2-fluoro-β-D-arabinofuranosyl)-5-bromouracil], the IC50 in the series on L5178Y turned out to be 0.9 µg/mL (≈ 2.77 µM).

In the case of `O=c1[nH]c(=O)n([C@@H]2O[C@H](CO)[C@@H](O)[C@@H]2F)cc1I` [Ve, 1-(2-deoxy-2-fluoro-β-D-arabinofuranosyl)-5-iodouracil], the IC50 with L5178Y came out at 0.9 µg/mL (≈ 2.42 µM).

For `Cc1cn([C@@H]2O[C@H](CO)[C@@H](O)[C@@H]2F)c(=O)[nH]c1=O` [Vf, 1-(2-deoxy-2-fluoro-β-D-arabinofuranosyl)thymine], the “sensitivity of cytomegalovirus to anti-viral effect” value in series [2] is recorded as “sensitive”.
